In ChEMBL document CHEMBL1147922, “Tetrahydroindazole inhibitors of bacterial type II topoisomerases. Part 2: SAR development and potency against multidrug-resistant strains” (Bioorg Med Chem Lett, 2007):
Converted amounts (≈) assume the structure as drawn.

Key:
[1] = test system: Staphylococcus aureus; experiment: Antibacterial activity against ciprofloxacin resistant methicillin resistant Staphylococcus aureus OC5273; format: functional
[2] = Inhibition of bacterial DNA gyrase
[3] = test system: Escherichia coli; experiment: Antibacterial activity against Escherichia coli KL16; format: functional
[4] = test system: Staphylococcus aureus; experiment: Antibacterial activity against ciprofloxacin resistant methicillin resistant Staphylococcus aureus OC3946; format: functional
[5] = Inhibition of bacterial DNA topoisomerase 4
[6] = test system: Staphylococcus aureus; experiment: Antibacterial activity against ciprofloxacin resistant methicillin resistant Staphylococcus aureus OC4222; format: functional
[7] = test system: Staphylococcus aureus; experiment: Antibacterial activity against ciprofloxacin resistant methicillin resistant Staphylococcus aureus OC4159; format: functional
[8] = test system: Streptococcus pneumoniae; experiment: Antibacterial activity against Streptococcus pneumoniae ATCC 49619; format: functional
[9] = test system: Staphylococcus aureus; experiment: Antibacterial activity against quinolone susceptible methicillin resistant Staphylococcus aureus OC2878; format: functional
[10] = test system: Staphylococcus aureus; experiment: Antibacterial activity against Staphylococcus aureus ATCC 13709; format: functional

| SMILES | IC50 [2] [µg/mL] | MIC [3] [µg/mL] | IC50 [5] [µg/mL] | MIC [8] [µg/mL] | MIC [10] [µg/mL] | MIC [1] [µg/mL] | MIC [4] [µg/mL] | MIC [6] [µg/mL] | MIC [7] [µg/mL] | MIC [9] [µg/mL] |
| --- | --- | --- | --- | --- | --- | --- | --- | --- | --- | --- |
| COc1ccc2nccc(-n3cc4c(n3)CCC(NCc3ccc5c(c3)NC(=O)CS5)C4)c2c1 (centres undefined) | 0.06 (≈ 0.127 µM) | 2 (≈ 4.24 µM) | 0.16 (≈ 0.339 µM) | 2 (≈ 4.24 µM) | 0.5 (≈ 1.06 µM) | 0.5 (≈ 1.06 µM) | 0.25 (≈ 0.53 µM) | 0.25 (≈ 0.53 µM) | 0.25 (≈ 0.53 µM) | 0.5 (≈ 1.06 µM) |
| COc1ccc2nccc(-n3cc4c(n3)CCC(NCc3ccc5c(c3)NC(=O)CS5)C4)c2n1 (centres undefined) | 0.125 (≈ 0.265 µM) | 1 (≈ 2.12 µM) | 0.03 (≈ 0.0635 µM) | 1 (≈ 2.12 µM) | 0.25 (≈ 0.529 µM) | 0.5 (≈ 1.06 µM) | 0.125 (≈ 0.265 µM) | 0.125 (≈ 0.265 µM) | 0.25 (≈ 0.529 µM) | 0.5 (≈ 1.06 µM) |
| O=C1CSc2ccc(C(=O)NC3CCc4nn(-c5cccc6ccccc56)cc4C3)cc2N1 (centres undefined) | 2 (≈ 4.4 µM) | > 128 | 0.125 (≈ 0.275 µM) | 8 (≈ 17.6 µM) | 0.5 (≈ 1.1 µM) |  |  |  |  |  |
| O=C1CSc2ccc(C(=O)NC3CCc4nn(-c5ccnc6cc(Cl)ccc56)cc4C3)cc2N1 (centres undefined) | 16 (≈ 32.7 µM) | > 128 | > 0.5 | > 128 | 2 (≈ 4.08 µM) |  |  |  |  |  |
| COc1ccc2nccc(-n3cc4c(n3)CCC(NCc3ccc5c(c3)NCCS5)C4)c2n1 (centres undefined) | 0.5 (≈ 1.09 µM) | 8 (≈ 17.4 µM) | 0.03 (≈ 0.0654 µM) | 0.25 (≈ 0.545 µM) | < 0.125 |  |  |  |  |  |
| COc1ccc2nccc(-n3cc4c(n3)CCC(NCc3ccc5c(c3)NCCS5)C4)c2c1 (centres undefined) | 0.5 (≈ 1.09 µM) | 8 (≈ 17.5 µM) | 0.0625 (≈ 0.137 µM) | 0.5 (≈ 1.09 µM) | 0.5 (≈ 1.09 µM) |  |  |  |  |  |
| COc1ccc2nccc(-n3cc4c(n3)CCC(NCc3ccc5c(n3)NC(=O)CO5)C4)c2c1 (centres undefined) | 0.06 (≈ 0.131 µM) | 2 (≈ 4.38 µM) | 0.016 (≈ 0.035 µM) | 2 (≈ 4.38 µM) | 1 (≈ 2.19 µM) |  |  |  |  |  |
| COc1ccc2nccc(-n3cc4c(n3)CCC(NC(=O)c3cc5ccccc5[nH]3)C4)c2c1 (centres undefined) | > 16 | > 128 | 1 (≈ 2.29 µM) | 8 (≈ 18.3 µM) | 1 (≈ 2.29 µM) |  |  |  |  |  |
| COc1ccc2nccc(-n3cc4c(n3)CCC(NC(=O)c3cc5c(cc3F)SCC(=O)N5)C4)c2n1 (centres undefined) | 0.12 (≈ 0.238 µM) | 128 (≈ 254 µM) | 0.125 (≈ 0.248 µM) | 2 (≈ 3.96 µM) | 0.25 (≈ 0.495 µM) | 0.031 (≈ 0.0614 µM) | 0.007 (≈ 0.0139 µM) | 0.015 (≈ 0.0297 µM) | 0.007 (≈ 0.0139 µM) | 0.031 (≈ 0.0614 µM) |
| COc1ccc2nccc(-n3cc4c(n3)CCC(NC(=O)c3cc5c(cc3F)SCC(=O)N5)C4)c2c1 (centres undefined) | 8 (≈ 15.9 µM) | 4 (≈ 7.94 µM) | 0.25 (≈ 0.496 µM) | 1 (≈ 1.99 µM) | 0.03 (≈ 0.0596 µM) | 0.062 (≈ 0.123 µM) | 0.015 (≈ 0.0298 µM) | 0.031 (≈ 0.0616 µM) | 0.031 (≈ 0.0616 µM) | 0.062 (≈ 0.123 µM) |
| COc1ccc2nccc(-n3cc4c(n3)CCC(NC(=O)c3c(F)cc5c(c3F)NC(=O)CS5)C4)c2c1 (centres undefined) | 1 (≈ 1.92 µM) | 8 (≈ 15.3 µM) |  | 1 (≈ 1.92 µM) | 0.125 (≈ 0.24 µM) |  |  |  |  |  |
| COc1ccc2nccc(-n3cc4c(n3)CCC(NC(=O)c3cc5c(cc3Cl)SCC(=O)N5)C4)c2n1 (centres undefined) | 0.12 (≈ 0.23 µM) | 2 (≈ 3.84 µM) |  | 4 (≈ 7.68 µM) | < 0.125 |  |  |  |  |  |
| COc1ccc2nccc(-n3cc4c(n3)CCC(NC(=O)c3cc5c(cc3OC)SCC(=O)N5)C4)c2n1 (centres undefined) |  | > 16 |  | 16 (≈ 31 µM) | 2 (≈ 3.87 µM) |  |  |  |  |  |

The next lines start with results.

| IC50 [2] [µg/mL] | MIC [3] [µg/mL] | IC50 [5] [µg/mL] | MIC [8] [µg/mL] | MIC [10] [µg/mL] | SMILES | MIC [1] [µg/mL] | MIC [4] [µg/mL] | MIC [6] [µg/mL] | MIC [7] [µg/mL] | MIC [9] [µg/mL] |
| --- | --- | --- | --- | --- | --- | --- | --- | --- | --- | --- |
| 4 (≈ 8.2 µM) | > 128 | 0.5 (≈ 1.03 µM) | > 128 | 8 (≈ 16.4 µM) | Cc1cc(-n2cc3c(n2)CCC(NC(=O)c2ccc4c(c2)NC(=O)CS4)C3)c2cc(F)ccc2n1 (centres undefined) |  |  |  |  |  |
| > 32 | > 128 | > 1 | 8 (≈ 17.5 µM) | 0.5 (≈ 1.09 µM) | COc1ccc2nccc(-n3cc4c(n3)CCC(NC(=O)c3ccc5c(c3)OCCO5)C4)c2n1 (centres undefined) |  |  |  |  |  |
| 4 (≈ 8.76 µM) | > 128 |  | 8 (≈ 17.5 µM) | 2 (≈ 4.38 µM) | COc1ccc2nccc(-n3cc4c(n3)CCC(NC(=O)c3ccc5c(c3)OCCO5)C4)c2c1 (centres undefined) |  |  |  |  |  |
| 1 (≈ 2.25 µM) | 32 (≈ 72.2 µM) | 0.25 (≈ 0.564 µM) | 0.5 (≈ 1.13 µM) | 0.03 (≈ 0.0676 µM) | COc1ccc2nccc(-n3cc4c(n3)CCC(NCc3ccc5c(c3)OCCO5)C4)c2n1 (centres undefined) |  |  |  |  |  |
| 4 (≈ 8.74 µM) | > 128 | 1 (≈ 2.19 µM) | 4 (≈ 8.74 µM) | 1 (≈ 2.19 µM) | COc1ccc2nccc(-n3cc4c(n3)CCC(NCc3ccc5c(c3)OCCCO5)C4)c2n1 (centres undefined) |  |  |  |  |  |
| 1 (≈ 2.13 µM) | 4 (≈ 8.5 µM) | 0.25 (≈ 0.531 µM) | 8 (≈ 17 µM) | 0.125 (≈ 0.266 µM) | COc1ccc2nccc(-n3cc4c(n3)CCC(NC(=O)c3ccc5c(c3)NC(=O)CO5)C4)c2n1 (centres undefined) |  |  |  |  |  |
| 0.5 (≈ 0.962 µM) | 2 (≈ 3.85 µM) |  | 2 (≈ 3.85 µM) | < 0.125 | COc1ccc2nccc(-n3cc4c(n3)CCC(NC(=O)c3cc5c(cc3Cl)SCC(=O)N5)C4)c2c1 (centres undefined) |  |  |  |  |  |
| 0.25 (≈ 0.442 µM) | 2 (≈ 3.54 µM) | 0.25 (≈ 0.442 µM) | 2 (≈ 3.54 µM) | 0.125 (≈ 0.221 µM) | COc1ccc2nccc(-n3cc4c(n3)CCC(NC(=O)c3cc5c(cc3Br)SCC(=O)N5)C4)c2n1 (centres undefined) |  |  |  |  |  |
| 1 (≈ 1.81 µM) | 8 (≈ 14.5 µM) | 0.25 (≈ 0.452 µM) | 8 (≈ 14.5 µM) | 0.125 (≈ 0.226 µM) | COc1ccc2nccc(-n3cc4c(n3)CCC(NC(=O)c3cc5c(cc3C(F)(F)F)SCC(=O)N5)C4)c2c1 (centres undefined) |  |  |  |  |  |
